Data published in ChEMBL document CHEMBL3045843, “Binding of Nicotinoids and the Related Compounds to the Insect Nicotinic Acetyicholine Receptor” (J Pestic Sci, 1992).

Tests used:
[1] = Disocciation constant, pKa of the compound at 37 degC; assay type: physicochemical
[2] = Displacement of [3H]alpha-bungarotoxin from nAChR in honeybee head membrane after 60 min by scintillation counting; assay type: cell membranes, Apis mellifera
[3] = biological target: T1, Nicotinic acetylcholine receptor alpha 5 subunit (Musca domestica, UniProt A9XFY4); assay: Displacement of [3H]alpha-bungarotoxin from nAChR in Musca domestica (house fly) head membrane after 60 min by scintillation counting
T1 sequence (A9XFY4 whole entry): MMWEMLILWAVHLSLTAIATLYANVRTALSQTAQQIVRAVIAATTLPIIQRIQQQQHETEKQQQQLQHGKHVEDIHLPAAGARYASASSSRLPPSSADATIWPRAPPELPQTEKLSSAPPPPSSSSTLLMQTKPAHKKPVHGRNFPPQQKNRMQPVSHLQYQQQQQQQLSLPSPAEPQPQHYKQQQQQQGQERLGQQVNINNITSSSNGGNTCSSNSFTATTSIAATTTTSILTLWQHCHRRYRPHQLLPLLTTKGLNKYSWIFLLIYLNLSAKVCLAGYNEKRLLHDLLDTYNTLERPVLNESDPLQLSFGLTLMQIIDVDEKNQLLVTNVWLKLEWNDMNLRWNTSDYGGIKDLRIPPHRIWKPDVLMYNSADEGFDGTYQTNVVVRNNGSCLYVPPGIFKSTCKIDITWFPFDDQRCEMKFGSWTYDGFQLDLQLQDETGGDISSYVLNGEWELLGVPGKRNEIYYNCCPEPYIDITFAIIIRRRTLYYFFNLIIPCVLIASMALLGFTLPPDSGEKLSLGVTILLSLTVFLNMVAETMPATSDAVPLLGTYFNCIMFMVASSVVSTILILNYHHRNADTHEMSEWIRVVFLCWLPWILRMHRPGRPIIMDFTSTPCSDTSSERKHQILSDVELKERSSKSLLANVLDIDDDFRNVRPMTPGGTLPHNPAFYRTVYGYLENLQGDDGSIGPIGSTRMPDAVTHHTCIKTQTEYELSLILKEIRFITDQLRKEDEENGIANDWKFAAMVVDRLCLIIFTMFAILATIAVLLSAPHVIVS

[4] = biological target: Acetylcholinesterase (Musca domestica, UniProt Q7YWJ9); assay: Inhibition of Musca domestica (house fly) acetylcholinesterase
Acetylcholinesterase, sequence (Q7YWJ9 whole entry): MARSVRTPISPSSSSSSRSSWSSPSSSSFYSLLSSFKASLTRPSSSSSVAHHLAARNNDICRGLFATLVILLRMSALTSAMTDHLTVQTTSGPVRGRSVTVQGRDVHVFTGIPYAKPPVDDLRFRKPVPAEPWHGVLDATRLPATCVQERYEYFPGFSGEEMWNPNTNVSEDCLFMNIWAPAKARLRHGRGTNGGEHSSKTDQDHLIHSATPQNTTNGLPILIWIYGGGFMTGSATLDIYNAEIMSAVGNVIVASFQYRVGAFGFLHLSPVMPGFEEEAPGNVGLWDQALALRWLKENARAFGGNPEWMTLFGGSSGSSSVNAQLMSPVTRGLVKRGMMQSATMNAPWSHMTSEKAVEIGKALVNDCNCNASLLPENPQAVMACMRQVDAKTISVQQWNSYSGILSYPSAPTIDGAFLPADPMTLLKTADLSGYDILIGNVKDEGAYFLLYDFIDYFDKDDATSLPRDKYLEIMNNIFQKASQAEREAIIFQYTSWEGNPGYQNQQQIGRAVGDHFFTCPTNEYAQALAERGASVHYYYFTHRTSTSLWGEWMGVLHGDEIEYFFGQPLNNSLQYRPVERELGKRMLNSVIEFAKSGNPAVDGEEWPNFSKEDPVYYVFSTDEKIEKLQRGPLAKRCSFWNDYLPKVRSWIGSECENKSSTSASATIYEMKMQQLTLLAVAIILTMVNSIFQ

[5] = test system: Musca domestica; assay: Insecticidal activity against Musca domestica (house fly) assessed as mortality relative to nicotine; assay type: functional
[6] = Disocciation constant, pKa of the compound at 25 degC; assay type: physicochemical

c1cncc(CN2CCCCC2)c1 gave a pKa [1] of 8.16, a Ki [2] of 48.7 µM and a Ki [3] of 67.6 µM. For the same compound, the IC50 [4] was 1500 µM and the “fold change (FC)” value [5] was 0.79.
With O=[N+]([O-])C=C1NCCN1 [2-(NITROMETHYLENE)IMIDAZOLIDINE] the Ki [2] was greater than 1000 µM and the Ki [3] was greater than 1000 µM.
CCCN(CCC)Cc1cccnc1 gave a pKa [1] of 8.13, a Ki [2] of 200 µM and a Ki [3] of 220 µM. For the same compound, the IC50 [4] was 1700 µM and the “fold change (FC)” value [5] was 0.16.
In the case of CCN(CC)Cc1ccncc1, the pKa [1] is reported as 7.96, the IC50 [4] is reported as 7700 µM and the “fold change (FC)” value [5] is reported as 0.1.
Work on O=C1N(Cc2ccccc2)C2C[S+]3CCCC3C2N1Cc1ccccc1 (stereo not drawn) [TRIMETHAPHAN] yielded a Ki [2] of 5.79 µM and a Ki [3] of 2.75 µM.
Work on C[N+](C)(C)CCOC(N)=O [CARBACHOL] yielded a Ki [2] of 175 µM and a Ki [3] of 212 µM.
Compound CN1CCC[C@H]1c1cccnc1 [NICOTINE] has a pKa [1] of 7.66, a Ki [2] of 1.48 µM and a Ki [3] of 2.48 µM. It also gave an IC50 [4] of 2600 µM and a pKa [6] of 7.9.
CNC1(C)C2CCC(C2)C1(C)C (stereo not drawn) [MECAMYLAMINE] gave a Ki [2] of 453 µM and a Ki [3] greater than 1000 µM.
c1cncc(C2=NCCC2)c1 [MYOSMINE] showed a pKa [1] of 5.23, a Ki [2] greater than 1000 µM and a Ki [3] greater than 1000 µM. The IC50 [4] was 6800 µM, the pKa [6] was 5.5 and the “fold change (FC)” value [5] was 0.36.
Compound C[N+](C)(C)CCCCCCCCCC[N+](C)(C)C [DECAMETHONIUM] has a Ki [2] of 224 µM and a Ki [3] of 103 µM.
With C[N+]1(CCCCC[N+]2(C)CCCC2)CCCC1 [PENTOLINIUM] the Ki [2] was 72.2 µM and the Ki [3] was 108 µM.
For CCCCNCc1cccnc1, the pKa [1] was 8.66, the Ki [2] was 406 µM and the Ki [3] was greater than 1000 µM. For the same compound, the IC50 [4] was 23000 µM and the “fold change (FC)” value [5] was 0.16.
In the case of CCCCN(CCCC)Cc1cccnc1, the pKa [1] is reported as 8.08, the Ki [2] is reported as 175 µM and the Ki [3] is reported as greater than 1000 µM. For the same compound, the IC50 [4] was 2800 µM and the “fold change (FC)” value [5] was 0.28.
c1cncc(CN2CCOCC2)c1 gave a pKa [1] of 5.76, a Ki [2] greater than 1000 µM and a Ki [3] greater than 1000 µM. The “fold change (FC)” value [5] was 0.04.
CN1C(=O)CC[C@H]1c1cccnc1 [COTININE] gave a Ki [2] greater than 1000 µM, a Ki [3] greater than 1000 µM and a pKa [6] of 4.5. The “fold change (FC)” value [5] was 0.03.
CN(C)C1CSSC1 [NEREISTOXIN] gave a Ki [2] of 254 µM and a Ki [3] of 187 µM.
Work on c1cncc(C2CCCCN2)c1 (stereo not drawn) [DL-ANABASINE] yielded a Ki [2] of 3.91 µM, a Ki [3] of 3.71 µM and an IC50 [4] of 3900 µM.
Work on N#C/N=C1/NCCN1/C=N/c1ccccc1 yielded a Ki [2] greater than 500 µM and a Ki [3] greater than 500 µM.
COC(=O)C1=CCCN(C)C1 [ARECOLINE] gave a Ki [2] of 240 µM and a Ki [3] of 516 µM.
With CCC[C@H]1CCCCN1 [CONIINE] the Ki [2] was 262 µM and the Ki [3] was greater than 1000 µM.
In the case of CN1CCC[C@H]1c1cccnc1 (racemic) [NICOTINE], the IC50 [4] is reported as 620 µM and the “fold change (FC)” value [5] is reported as 1.
In the case of CN(C)Cc1ccncc1, the Ki [2] is reported as greater than 1000 µM and the Ki [3] is reported as greater than 1000 µM.
With CNCc1cccnc1 the pKa [1] was 8.3, the Ki [2] was 377 µM and the Ki [3] was 600 µM. For the same compound, the IC50 [4] was 31000 µM and the “fold change (FC)” value [5] was 0.3.
Compound CCOc1ccccc1Cn1nc(OC)oc1=O has a Ki [2] greater than 100 µM and a Ki [3] greater than 100 µM.
CC(C)NCc1cccnc1 showed a pKa [1] of 8.46, a Ki [2] of 103 µM and a Ki [3] of 226 µM. For the same compound, the IC50 [4] was 3900 µM and the “fold change (FC)” value [5] was 0.46.
For CN(C)Cc1cccnc1, the pKa [1] was 7.76, the Ki [2] was 208 µM and the Ki [3] was 201 µM. The IC50 [4] was 5100 µM and the “fold change (FC)” value [5] was 0.45.
In the case of c1cncc(C2CCCCN2)c1 (racemic) [DL-ANABASINE], the “fold change (FC)” value [5] is reported as 0.6.
For O=[N+]([O-])C(/C=N/c1ccccc1)=C1NCCN1, the Ki [2] was greater than 500 µM and the Ki [3] was greater than 500 µM.
Work on O=[N+]([O-])/N=C1\NCCN1Cc1ccc(Cl)nc1 [IMIDACLOPRID] yielded a Ki [2] of 2.53 µM and a Ki [3] of 7.47 µM.
For Cn1cccc1-c1cccnc1 [NICOTYRINE], the pKa [1] was 4.5, the Ki [2] was greater than 1000 µM and the Ki [3] was greater than 1000 µM. For the same compound, the IC50 [4] was 2300 µM, the pKa [6] was 4.7 and the “fold change (FC)” value [5] was 0.18.
Work on CCNCc1cccnc1 yielded a pKa [1] of 8.96, a Ki [2] of 289 µM and a Ki [3] of 380 µM. For the same compound, the IC50 [4] was 7100 µM and the “fold change (FC)” value [5] was 0.34.
In the case of CCN(CC)Cc1ccccn1, the pKa [1] is reported as 8.42, the IC50 [4] is reported as 3000 µM and the “fold change (FC)” value [5] is reported as 0.1.
c1cncc([C@@H]2CCCN2)c1 (racemic) [NORNICOTINE] gave a Ki [2] of 7.61 µM, a Ki [3] of 8.77 µM and an IC50 [4] of 9700 µM. For the same compound, the “fold change (FC)” value [5] was 0.3.
CN(C)Cc1ccccn1 showed a Ki [2] greater than 1000 µM and a Ki [3] greater than 1000 µM.
With c1cncc(CN2CCCC2)c1 [N-(3-PYRIDYLMETHYL)PYRROLIDINE] the pKa [1] was 8.11, the Ki [2] was 14.3 µM and the Ki [3] was 16.4 µM. For the same compound, the IC50 [4] was 1400 µM and the “fold change (FC)” value [5] was 0.43.
For CCCNCc1cccnc1, the pKa [1] was 8.38, the Ki [2] was greater than 1000 µM and the Ki [3] was greater than 1000 µM. The IC50 [4] was 17000 µM and the “fold change (FC)” value [5] was 0.15.
CCN(CC)Cc1cccnc1 showed a pKa [1] of 8.12, a Ki [2] of 155 µM and a Ki [3] of 450 µM. The IC50 [4] was 890 µM and the “fold change (FC)” value [5] was 0.46.
With CN1CCC[C@@H]1c1cccnc1 [R-NICOTINE] the Ki [2] was 43.7 µM, the Ki [3] was 59.9 µM and the IC50 [4] was 230 µM. The “fold change (FC)” value [5] was 1.
For CN1[C@@H]2CC[C@H]1C[C@@H](OC(=O)C(CO)c1ccccc1)C2 (stereo partly drawn) [ATROPINE], the Ki [2] was 26.3 µM and the Ki [3] was 32.5 µM.
In the case of COc1nn(-c2ccc(C)cc2OC)c(=O)o1, the Ki [2] is reported as greater than 1000 µM and the Ki [3] is reported as greater than 1000 µM.
C1=C(c2cccnc2)NCC1 [DIHYDRONICOTYRINE] gave a pKa [1] of 7.21, a Ki [2] of 1.27 µM and a Ki [3] of 1.92 µM. For the same compound, the IC50 [4] was 350 µM, the pKa [6] was 7.4 and the “fold change (FC)” value [5] was 2.6.
In the case of CN1[C@@H](CC(=O)c2ccccc2)CCC[C@H]1C[C@H](O)c1ccccc1 [LOBELINE], the Ki [2] is reported as 9.13 µM and the Ki [3] is reported as 12.8 µM.
O=c1cccc2n1C[C@@H]1CNC[C@H]2C1 [CYTISINICLINE] gave a Ki [2] of 0.65 µM and a Ki [3] of 1.23 µM.
c1cncc([C@@H]2CCCCN2)c1 [ANABASINE] gave a pKa [1] of 8.48 and a pKa [6] of 8.7.
C[N+]1(C)CCN(c2ccccc2)CC1 [DIMETHYLPHENYLPIPERAZINIUM] gave a Ki [2] of 49.5 µM and a Ki [3] of 86.3 µM.
For COc1cc2c3cc1Oc1cc(ccc1O)C[C@@H]1c4c(cc(OC)c(O)c4Oc4ccc(cc4)C[C@@H]3N(C)CC2)CC[N+]1(C)C [TUBOCURARINE], the Ki [2] was 3.57 µM and the Ki [3] was 1.88 µM.
In the case of c1cncc([C@@H]2CCCN2)c1 [NORNICOTINE], the pKa [1] is reported as 8.76, the IC50 [4] is reported as 4200 µM and the pKa [6] is reported as 9.
